Experimental data: patent US11447493B2 (Kinnate Biopharma Inc., priority 2018, dated 2022)

Legend:
Format in all cases: biochemical
CDK12 wt/CycK = CDK12 wt/CycK (Homo sapiens (Human), UniProt Q9NYV4); assay: Radiometric protein kinase assay (33PanQinase), Assay Condition A (thiol containing); conditions: thiol containing (1.2 mM DTT), ATP 0.3 μM
How it was run: (§1)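 Recombinant human kinases assayed radiometrically (33PanQinase) with 33P-ATP incorporation into substrate, 60 min at 30° C, thiol-containing buffer, 1% DMSO final. Ten concentrations from 1×10^−04M to 3×10^−09M tested in singlicate. Residual activity normalized to no-enzyme and no-inhibitor controls; IC50 by least-squares fit.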

CDK12 = CDK12 (Homo sapiens (Human), UniProt Q9NYV4); assay: Radiometric protein kinase assay (33PanQinase), Assay Condition B (thiol-free); conditions: thiol-free (1 mM TCEP)
Protocol: The IC50 profile of compounds was determined using one protein kinase in a customized, thiol free assay. […] Prior to testing, the 1×10^−03 M stock solutions in column 2 of the master plates were subjected to a serial, semi-logarithmic dilution using 100% DMSO as a solvent. […] Column 1 and 7 were filled with 100% DMSO as controls. Subsequently, 2×10 microliter from each well of the serial diluted copy plates were aliquoted with a 96 channel pipettor into two identical sets of “compound dilution plates”. All plates were barcoded for automated identification and tracking purposes. […] All compounds were stored as powder until being solubilized in DMSO. Solubilized compounds were stored as 1×10^−02M/100% DMSO stock solutions. Prior to the assay process, 90 microliters of H2O were added to each well of a set of compound dilution plates. To minimize potential precipitation, the H2O was added to each plate only a few minutes before the transfer of the compound solutions into the assay plates. Each plate was shaken thoroughly, resulting in compound dilution plates with a final of 10% DMSO. For each assay, 5 microliters of solution from each well of the compound dilution plates/10% DMSO were transferred into the assay plate. The final volume of the assay was 50 μl. All compounds were tested at 10 final assay concentrations in the range from 1×10^−05M to 3×10^−10 M, in singlicate. The final DMSO concentration in the reaction cocktails was 1% in all cases. […] This was done so there would be no interference with the key cysteines in the proteins of interest.
For data analysis, the median value of the counts in column 1 (n=8) of each assay plate was defined as “low control”. This value reflects unspecific binding of radioactivity to the plate in the absence of a protein kinase but in the presence of the substrate. The median value of the counts in column 7 of each assay plate (n=8) was taken as the “high control”, i.e. full activity in the absence of any inhibitor. The difference between high and low control was taken as 100% activity. As part of the data evaluation the low control value from a particular plate was subtracted from the high control value as well as from all 80 “compound values” of the corresponding plate. The residual activity (in %) for each well of a particular plate was calculated by using the following formula: Res. Activity (%)=100×[(cpm of compound−low control)/(high control−low control)]
The fitting method used was a least-squares fit.

CDK2/CycA2 = CDK2/CycA2 (Homo sapiens (Human), UniProt P24941); assay: Radiometric protein kinase assay (33PanQinase), Assay Condition A (thiol containing); conditions: thiol containing (1.2 mM DTT), ATP 0.3 μM
How it was run: as §1

CDK2 = CDK2 (Homo sapiens (Human), UniProt P24941); assay: Radiometric protein kinase assay (33PanQinase), Assay Condition B (thiol-free); conditions: thiol-free (1 mM TCEP)
Protocol: The IC50 profile of compounds was determined using one protein kinase in a customized, thiol free assay. […] Prior to testing, the 1×10^−03 M stock solutions in column 2 of the master plates were subjected to a serial, semi-logarithmic dilution using 100% DMSO as a solvent. […] Column 1 and 7 were filled with 100% DMSO as controls. Subsequently, 2×10 microliter from each well of the serial diluted copy plates were aliquoted with a 96 channel pipettor into two identical sets of “compound dilution plates”. All plates were barcoded for automated identification and tracking purposes. […] All compounds were stored as powder until being solubilized in DMSO. Solubilized compounds were stored as 1×10^−02M/100% DMSO stock solutions. Prior to the assay process, 90 microliters of H2O were added to each well of a set of compound dilution plates. To minimize potential precipitation, the H2O was added to each plate only a few minutes before the transfer of the compound solutions into the assay plates. Each plate was shaken thoroughly, resulting in compound dilution plates with a final of 10% DMSO. For each assay, 5 microliters of solution from each well of the compound dilution plates/10% DMSO were transferred into the assay plate. The final volume of the assay was 50 μl. All compounds were tested at 10 final assay concentrations in the range from 1×10^−05M to 3×10^−10 M, in singlicate. The final DMSO concentration in the reaction cocktails was 1% in all cases. […]
For data analysis, the median value of the counts in column 1 (n=8) of each assay plate was defined as “low control”. This value reflects unspecific binding of radioactivity to the plate in the absence of a protein kinase but in the presence of the substrate. […] The residual activity (in %) for each well of a particular plate was calculated by using the following formula: Res. Activity (%)=100×[(cpm of compound−low control)/(high control−low control)]
The residual activities for each concentration and the compound IC50 values were calculated using Quattro Workflow V3.1.1 (Quattro Research GmbH, Munich, Germany; www.quattro-research.com). […]

CDK7/CycH/MAT1 = CDK7/CycH/MAT1 (Homo sapiens (Human), UniProt P50613); assay: Radiometric protein kinase assay (33PanQinase), Assay Condition A (thiol containing); conditions: thiol containing (1.2 mM DTT), ATP 3.0 μM
How it was run: as §1

Sequence of CDK12 wt/CycK (Q9NYV4 whole entry): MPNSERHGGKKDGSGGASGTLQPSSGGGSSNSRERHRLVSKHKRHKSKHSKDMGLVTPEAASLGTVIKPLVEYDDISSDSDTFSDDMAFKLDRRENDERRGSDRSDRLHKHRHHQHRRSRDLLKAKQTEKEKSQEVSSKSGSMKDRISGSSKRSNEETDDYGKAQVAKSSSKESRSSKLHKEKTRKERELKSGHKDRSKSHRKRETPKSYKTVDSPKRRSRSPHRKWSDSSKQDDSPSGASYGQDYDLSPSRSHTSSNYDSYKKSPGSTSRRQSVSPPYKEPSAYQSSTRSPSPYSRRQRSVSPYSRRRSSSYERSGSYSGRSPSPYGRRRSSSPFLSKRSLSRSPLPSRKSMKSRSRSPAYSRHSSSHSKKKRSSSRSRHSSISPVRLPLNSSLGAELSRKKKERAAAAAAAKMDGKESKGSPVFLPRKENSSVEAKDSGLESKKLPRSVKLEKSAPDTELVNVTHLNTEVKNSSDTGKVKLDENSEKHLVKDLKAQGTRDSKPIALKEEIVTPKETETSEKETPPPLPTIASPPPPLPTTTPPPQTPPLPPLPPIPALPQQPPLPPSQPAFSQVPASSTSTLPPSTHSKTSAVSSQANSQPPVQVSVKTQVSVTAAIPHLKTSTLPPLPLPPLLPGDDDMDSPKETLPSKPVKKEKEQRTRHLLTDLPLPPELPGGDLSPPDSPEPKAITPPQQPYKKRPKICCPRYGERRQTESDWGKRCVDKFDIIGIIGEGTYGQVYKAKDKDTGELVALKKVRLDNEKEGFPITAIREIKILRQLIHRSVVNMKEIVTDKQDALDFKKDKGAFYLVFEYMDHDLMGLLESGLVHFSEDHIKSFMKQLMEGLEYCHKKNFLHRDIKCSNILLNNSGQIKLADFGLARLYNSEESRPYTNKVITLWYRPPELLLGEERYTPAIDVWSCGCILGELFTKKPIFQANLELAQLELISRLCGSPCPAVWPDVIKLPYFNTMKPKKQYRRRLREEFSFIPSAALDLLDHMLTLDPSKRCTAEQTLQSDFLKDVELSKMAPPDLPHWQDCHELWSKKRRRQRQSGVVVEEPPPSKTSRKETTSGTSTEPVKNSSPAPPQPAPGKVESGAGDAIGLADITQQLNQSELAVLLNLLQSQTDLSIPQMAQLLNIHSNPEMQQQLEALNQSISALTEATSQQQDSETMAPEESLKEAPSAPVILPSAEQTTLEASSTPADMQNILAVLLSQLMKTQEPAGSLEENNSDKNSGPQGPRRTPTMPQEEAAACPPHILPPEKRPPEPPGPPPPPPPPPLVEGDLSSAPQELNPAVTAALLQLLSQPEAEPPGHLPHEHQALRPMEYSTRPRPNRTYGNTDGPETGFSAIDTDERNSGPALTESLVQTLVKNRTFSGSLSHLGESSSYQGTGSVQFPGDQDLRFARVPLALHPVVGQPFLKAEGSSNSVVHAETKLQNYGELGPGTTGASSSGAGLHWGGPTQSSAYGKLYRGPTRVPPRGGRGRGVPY
Sequence of CDK12 wt/CycK (O75909 whole entry partner): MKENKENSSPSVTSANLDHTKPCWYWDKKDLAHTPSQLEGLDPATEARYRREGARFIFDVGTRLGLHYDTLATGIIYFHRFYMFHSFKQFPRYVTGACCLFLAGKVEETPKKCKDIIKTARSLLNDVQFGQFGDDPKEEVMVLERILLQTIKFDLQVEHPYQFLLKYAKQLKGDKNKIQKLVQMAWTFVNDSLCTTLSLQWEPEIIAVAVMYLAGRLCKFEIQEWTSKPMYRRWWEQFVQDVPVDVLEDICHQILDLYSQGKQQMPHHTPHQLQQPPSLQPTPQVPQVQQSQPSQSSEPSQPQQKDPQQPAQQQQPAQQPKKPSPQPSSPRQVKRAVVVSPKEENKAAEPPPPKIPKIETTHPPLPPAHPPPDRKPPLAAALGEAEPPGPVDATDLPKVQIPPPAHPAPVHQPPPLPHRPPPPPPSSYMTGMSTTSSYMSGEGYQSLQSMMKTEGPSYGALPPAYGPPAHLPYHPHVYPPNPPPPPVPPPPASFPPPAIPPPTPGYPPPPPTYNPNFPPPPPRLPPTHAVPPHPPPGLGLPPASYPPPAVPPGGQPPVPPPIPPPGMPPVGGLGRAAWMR
Sequence of CDK12 (Q9NYV4 whole entry): as the sequence (Q9NYV4 whole entry) above
Sequence of CDK12 (O75909 whole entry partner): as the sequence (O75909 whole entry partner) above
Sequence of CDK7/CycH/MAT1 (P50613 whole entry): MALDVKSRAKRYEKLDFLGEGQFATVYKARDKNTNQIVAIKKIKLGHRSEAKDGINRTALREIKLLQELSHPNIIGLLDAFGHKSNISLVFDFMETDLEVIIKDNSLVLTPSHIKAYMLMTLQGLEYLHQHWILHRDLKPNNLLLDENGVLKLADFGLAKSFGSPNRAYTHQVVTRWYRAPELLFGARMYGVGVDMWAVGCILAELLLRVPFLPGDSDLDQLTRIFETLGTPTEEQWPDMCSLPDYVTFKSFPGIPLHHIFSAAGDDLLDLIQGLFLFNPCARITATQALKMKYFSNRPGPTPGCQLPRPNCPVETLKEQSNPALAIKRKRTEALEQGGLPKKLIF
Sequence of CDK7/CycH/MAT1 (P51946 whole entry partner): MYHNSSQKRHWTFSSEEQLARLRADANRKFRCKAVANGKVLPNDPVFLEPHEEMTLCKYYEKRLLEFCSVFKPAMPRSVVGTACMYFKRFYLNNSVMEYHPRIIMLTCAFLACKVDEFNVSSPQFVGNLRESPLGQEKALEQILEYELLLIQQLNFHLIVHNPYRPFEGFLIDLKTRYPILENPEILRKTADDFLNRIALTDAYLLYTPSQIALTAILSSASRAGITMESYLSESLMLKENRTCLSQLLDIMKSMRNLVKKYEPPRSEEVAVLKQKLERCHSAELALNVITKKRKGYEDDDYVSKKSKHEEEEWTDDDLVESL
Sequence of CDK7/CycH/MAT1 (P51948 whole entry partner): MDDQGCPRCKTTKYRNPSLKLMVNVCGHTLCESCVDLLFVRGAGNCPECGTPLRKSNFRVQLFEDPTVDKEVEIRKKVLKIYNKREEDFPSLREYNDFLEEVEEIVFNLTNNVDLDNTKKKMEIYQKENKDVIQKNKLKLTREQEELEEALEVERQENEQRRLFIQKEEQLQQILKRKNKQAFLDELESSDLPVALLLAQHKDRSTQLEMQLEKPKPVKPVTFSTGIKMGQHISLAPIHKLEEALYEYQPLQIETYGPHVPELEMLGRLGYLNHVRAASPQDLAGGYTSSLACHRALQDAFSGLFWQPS

SMILES	IC50 (CDK12 wt/CycK) [µM]	IC50 (CDK12) [µM]	IC50 (CDK2/CycA2) [µM]	IC50 (CDK2) [µM]	IC50 (CDK7/CycH/MAT1) [µM]
C=CC(=O)Nc1ccc(C(=O)N2CC[C@@H](Nc3ncc4ccccc4n3)C2)cc1 [Example 26, (R)-N-(4-(3-(quinazolin-2-ylamino)pyrrolidine-1-carbonyl)phenyl)acrylamide]	≤ 0.1	< 0.1			
C=CC(=O)Nc1ccc(C(=O)N2CC[C@@H](Nc3ncc4cc(F)ccc4n3)C2)cc1 [Example 28, (R)-N-(4-(3-((6-fluoroquinazolin-2-yl)amino)pyrrolidine-1-carbonyl)phenyl)acrylamide]	≤ 0.1	< 0.1			
C=CC(=O)Nc1ccc(C(=O)N2CC[C@@H](Nc3ncc4ccc(S(C)(=O)=O)cc4n3)C2)cc1 [Example 33, (R)-N-(4-(3-((7-(methylsulfonyl)quinazolin-2-yl)amino)pyrrolidine-1-carbonyl)phenyl)acrylamide]	≤ 0.1	< 0.1			
C=CC(=O)Nc1ccc(C(=O)N2CC[C@@H](Nc3ncc4ccc(OC)cc4n3)C2)cc1 [Example 34, (R)-N-(4-(3-((7-methoxyquinazolin-2-yl)amino)pyrrolidine-1-carbonyl)phenyl)acrylamide]	≤ 0.1	< 0.1			
C=CC(=O)Nc1ccc(C(=O)N2CC[C@@H](Nc3ncc4ccc(C#N)cc4n3)C2)cc1 [Example 37, (R)—N-(4-(3-((7-cyanoquinazolin-2-yl)amino)pyrrolidine-1-carbonyl)phenyl)acrylamide]	≤ 0.1	< 0.1			
C=CC(=O)Nc1ccc(C(=O)N2CC[C@@H](Nc3ncc4ccc(=O)n(C(C)C)c4n3)C2)cc1 [Example 43, (R)—N-(4-(3-((8-isopropyl-7-oxo-7,8-dihydropyrido[2,3-d]pyrimidin-2-yl)amino)pyrrolidine-1-carbonyl)phenyl)acrylamide]	≤ 0.1	< 0.1			
CCC(=O)Nc1ccc(C(=O)N2CC[C@@H](Nc3ncc4ccccc4n3)C2)cc1 [Example 44, (R)—N-(4-(3-(quinazolin-2-ylamino)pyrrolidine-1-carbonyl)phenyl)propionamide]	0.1 to 1	0.1 to 1			
C=CC(=O)Nc1ccc(C(=O)N2CC[C@@H](Nc3ncc4ccccc4n3)C2)cc1F [Example 62, (R)—N-(2-fluoro-4-(3-(quinazolin-2-ylamino)pyrrolidine-1-carbonyl)phenyl)acrylamide]	≤ 0.1	< 0.1			
C=CC(=O)N(C)c1ccc(C(=O)N2CC[C@@H](Nc3ncc4ccccc4n3)C2)cc1 [Example 74, (R)—N-methyl-N-(4-(3-(quinazolin-2-ylamino)pyrrolidine-1-carbonyl)phenyl)acrylamide]			1 to 10	1 to 10	
CC#CC(=O)Nc1ccc(C(=O)N2CC[C@@H](Nc3ncc4ccccc4n3)C2)cc1 [Example 77, (R)—N-(4-(3-(quinazolin-2-ylamino)pyrrolidine-1-carbonyl)phenyl)but-2-ynamide]	≤ 0.1		0.1 to 1		0.1 to 1
C=CC(=O)Nc1ccc(C(=O)N2CC[C@@H](Nc3ncc4ccccc4n3)C2)c(C)c1 [Example 78]	0.1 to 1		1 to 10		1 to 10
C=CC(=O)N1CCOc2cc(C(=O)N3CC[C@@H](Nc4ncc5ccccc5n4)C3)ccc21 [Example 80, (R)-1-(7-(3-(quinazolin-2-ylamino)pyrrolidine-1-carbonyl)-2H-benzo[b][1,4]oxazin-4(3H)-yl)prop-2-en-1-one]	≤ 0.1		0.1 to 1		0.1 to 1
COc1cc(C(=O)N2CC[C@@H](Nc3ncc4ccccc4n3)C2)ccc1NC(=O)/C=C/CN(C)C [Example 81, (R,E)-4-(dimethylamino)-N-(2-methoxy-4-(3-(quinazolin-2-ylamino)pyrrolidine-1-carbonyl)phenyl)but-2-enamide]	0.1 to 1		1 to 10		0.1 to 1
CN(C)C/C=C/C(=O)Nc1ccc(C(=O)N2CC[C@@H](Nc3ncc4ccccc4n3)C2)cc1Cl [Example 82, (R,E)-N-(2-chloro-4-(3-(quinazolin-2-ylamino)pyrrolidine-1-carbonyl)phenyl)-4-(dimethylamino)but-2-enamide]	0.1 to 1		1 to 10		0.1 to 1
CN(C)C/C=C/C(=O)N1CCOc2cc(C(=O)N3CC[C@@H](Nc4ncc5ccccc5n4)C3)ccc21 [Example 84, (R,E)-4-(dimethylamino)-1-(7-(3-(quinazolin-2-ylamino)pyrrolidine-1-carbonyl)-2H-benzo[b][1,4]oxazin-4(3H)-yl)but-2-en-1-one]	0.1 to 1		1 to 10		0.1 to 1
C=CC(=O)Nc1cccc(C(=O)N2CC[C@@H](Nc3ncc4ccccc4n3)C2)c1 [Example 87, (R)—N-(3-(3-(quinazolin-2-ylamino)pyrrolidine-1-carbonyl)phenyl)acrylamide]	0.1 to 1		0.1 to 1		0.1 to 1
CN(C)C/C=C/C(=O)N1CCCc2cc(C(=O)N3CC[C@@H](Nc4ncc5ccccc5n4)C3)ccc21 [Example 89, (R,E)-4-(dimethylamino)-1-(6-(3-(quinazolin-2-ylamino)pyrrolidine-1-carbonyl)-3,4-dihydroquinolin-1(2H)-yl)but-2-en-1-one]	0.1 to 1		1 to 10		0.1 to 1
C=CC(=O)Nc1ccc(C(=O)N2CC[C@@H](Nc3ncc4cccc(F)c4n3)C2)cc1 [Example 90, (R)—N-(4-(3-((8-fluoroquinazolin-2-yl)amino)pyrrolidine-1-carbonyl)phenyl)acrylamide]	0.1 to 1		1 to 10		1 to 10
C=CC(=O)Nc1ccc(C(=O)N2CC[C@@H](Nc3ncc4c(F)cccc4n3)C2)cc1 [Example 91, (R)—N-(4-(3-((5-fluoroquinazolin-2-yl)amino)pyrrolidine-1-carbonyl)phenyl)acrylamide]	0.1 to 1		1 to 10		1 to 10
C=CC(=O)Nc1ccc(C(=O)N2CC[C@@H](Nc3ncc4cc(F)ccc4n3)C2)cc1C [Example 92, (R)—N-(4-(3-((6-fluoroquinazolin-2-yl)amino)pyrrolidine-1-carbonyl)-2-methylphenyl)acrylamide]	≤ 0.1		1 to 10		1 to 10
C=CC(=O)Nc1ccc(C(=O)N2CC[C@@H](Nc3ncc4ccc(S(C)(=O)=O)cc4n3)C2)cc1C [Example 93, (R)—N-(2-methyl-4-(3-((7-(methylsulfonyl)quinazolin-2-yl)amino)pyrrolidine-1-carbonyl)phenyl)acrylamide]	≤ 0.1		0.1 to 1		1 to 10
C=C(CC)C(=O)Nc1ccc(C(=O)N2CC[C@@H](Nc3ncc4ccccc4n3)C2)cc1 [Example 94, (R)-2-methylene-N-(4-(3-(quinazolin-2-ylamino)pyrrolidine-1-carbonyl)phenyl)butanamide]	0.1 to 1		1 to 10		1 to 10
C=CS(=O)(=O)Nc1ccc(C(=O)N2CC[C@@H](Nc3ncc4ccccc4n3)C2)cc1 [Example 95, (R)—N-(4-(3-(quinazolin-2-ylamino)pyrrolidine-1-carbonyl)phenyl)ethenesulfonamide]	0.1 to 1		1 to 10		0.1 to 1
C=CC(=O)Nc1ccc(C(=O)N2C[C@H](Nc3ncc4ccccc4n3)[C@@H](C)C2)cc1 [Example 96, N-(4-((3S,4R)-3-methyl-4-(quinazolin-2-ylamino)pyrrolidine-1-carbonyl)phenyl)acrylamide]	1 to 10		30 to 100		10 to 30
